Values of other authors as cited in publication PMC4360375 (Journal of Medicinal Chemistry, 2015).

Test system: GABA uptake, rat synaptosome
Details: literature data set; ref 10.1016/S0968-0896(01)00148-1; cited from earlier work

Row | Compound | pIC50
1 | O=C(O)[C@@H]1CCCN(CCO/N=C(\c2ccccc2)C2CC2)C1 [An_2001/6_14, O(\N=C(\C1CC1)/c1ccccc1)CCN1C[C@@H](CCC1)C(O)=O] | 5.907
2 | CC(C)C/C(=N/OCCN1CCC[C@@H](C(=O)O)C1)c1ccccc1 [An_2001/6_15, O(\N=C(\CC(C)C)/c1ccccc1)CCN1C[C@@H](CCC1)C(O)=O] | 6.553
3 | O=C(O)[C@@H]1CCCN(CCO/N=C(/Cc2ccccc2)c2ccccc2)C1 [An_2001/6_16, O(\N=C(\Cc1ccccc1)/c1ccccc1)CCN1C[C@@H](CCC1)C(O)=O] | 6.87
4 | O=C(O)[C@@H]1CCCN(CCO/N=C(/Cc2ccc(F)cc2)c2ccc(F)cc2)C1 [An_2001/6_17, Fc1ccc(cc1)C\C(=N\OCCN1C[C@@H](CCC1)C(O)=O)\c1ccc(F)cc1] | 6.036
5 | O=C(O)[C@@H]1CCCN(CCO/N=C(/Cc2ccccc2F)c2ccccc2F)C1 [An_2001/6_18, Fc1ccccc1C\C(=N\OCCN1C[C@@H](CCC1)C(O)=O)\c1ccccc1F] | 7.097
6 | O=C(O)[C@@H]1CCCN(CCON=C(Cc2ccccc2)Cc2ccccc2)C1 [An_2001/6_19, O(\N=C(\Cc1ccccc1)/Cc1ccccc1)CCN1C[C@@H](CCC1)C(O)=O] | 5.987
7 | CC/C=C(/C=N/OCCN1CCC[C@@H](C(=O)O)C1)c1ccccc1 [An_2001/6_20, O(\N=C\C(=C\CC)\c1ccccc1)CCN1C[C@@H](CCC1)C(O)=O] | 6.125
8 | CC(C)/C=C(/C=N/OCCN1CCC[C@@H](C(=O)O)C1)c1ccccc1 [An_2001/6_21, O(\N=C\C(=C\C(C)C)\c1ccccc1)CCN1C[C@@H](CCC1)C(O)=O] | 6.569
9 | CC(C)C/C=C(/C=N/OCCN1CCC[C@@H](C(=O)O)C1)c1ccccc1 [An_2001/6_22, O(\N=C\C(=C\CC(C)C)\c1ccccc1)CCN1C[C@@H](CCC1)C(O)=O] | 6.538
10 | O=C(O)[C@@H]1CCCN(CCO/N=C/C2(c3ccccc3)CCCC2)C1 [An_2001/6_23, O(\N=C\C1(CCCC1)c1ccccc1)CCN1C[C@@H](CCC1)C(O)=O] | 6.337
11 | O=C(O)[C@@H]1CCCN(CCO/N=C2\CCCC[C@@H]2c2ccccc2)C1 [An_2001/6_24, O(\N=C\1/CCCC[C@@H]/1c1ccccc1)CCN1C[C@@H](CCC1)C(O)=O] | 6.489
12 | O=C(O)[C@@H]1CCCN(CCO/N=C2\CCCC=C2c2ccccc2)C1 [An_2001/6_25, O(\N=C\1/CCCC=C/1c1ccccc1)CCN1C[C@@H](CCC1)C(O)=O] | 6.456
13 | O=C(O)[C@@H]1CCCN(CCO/N=C2\CCCC\C2=C/c2ccccc2)C1 [An_2001/6_26, O(\N=C\1/CCCC/C/1=C\c1ccccc1)CCN1C[C@@H](CCC1)C(O)=O] | 5.013
14 | O=C(O)[C@@H]1CCCN(CCO/N=C2\c3ccccc3CC[C@@H]2c2ccccc2)C1 [An_2001/6_27, O(\N=C\1/c2c(CC[C@@H]/1c1ccccc1)cccc2)CCN1C[C@@H](CCC1)C(O)=O] | 6.058
15 | O=C(O)[C@@H]1CCCN(CCO/N=C2\C[C@H](c3ccccc3)c3ccccc32)C1 [An_2001/6_28, O(\N=C\1/C[C@@H](c2c/1cccc2)c1ccccc1)CCN1C[C@@H](CCC1)C(O)=O] | 5.852
16 | O=C(O)[C@@H]1CCCN(CCOc2ccccc2)C1 [An_2001/6_32, O(CCN1C[C@@H](CCC1)C(O)=O)c1ccccc1] | 5.046
17 | O=C(O)[C@@H]1CCCN(CCOc2ccccc2-c2ccccc2)C1 [An_2001/6_33, O(CCN1C[C@@H](CCC1)C(O)=O)c1ccccc1-c1ccccc1] | 5.235
18 | O=C(O)[C@@H]1CCCN(CCOc2ccccc2Cc2ccccc2)C1 [An_2001/6_34, O(CCN1C[C@@H](CCC1)C(O)=O)c1ccccc1Cc1ccccc1] | 5.158
19 | O=C(O)[C@@H]1CCCN(CCOCc2ccccc2-c2ccccc2)C1 [An_2001/6_35, O(Cc1ccccc1-c1ccccc1)CCN1C[C@@H](CCC1)C(O)=O] | 6.476
20 | O=C(O)[C@@H]1CCCN(CCOCc2ccc3ccccc3c2-c2ccccc2)C1 [An_2001/6_36, O(Cc1ccc2c(cccc2)c1-c1ccccc1)CCN1C[C@@H](CCC1)C(O)=O] | 5.098
21 | O=C(O)[C@@H]1CCCN(CCOCc2ccccc2Cc2ccccc2)C1 [An_2001/6_37, O(Cc1ccccc1Cc1ccccc1)CCN1C[C@@H](CCC1)C(O)=O] | 6.495
22 | O=C(O)[C@@H]1CCCN(CCOCc2cccc(Cc3ccccc3)c2)C1 [An_2001/6_38, O(Cc1cc(ccc1)Cc1ccccc1)CCN1C[C@@H](CCC1)C(O)=O] | 5.523
23 | O=C(O)[C@@H]1CCCN(CCOCCc2ccccc2-c2ccccc2)C1 [An_2001/6_39, O(CCc1ccccc1-c1ccccc1)CCN1C[C@@H](CCC1)C(O)=O] | 6.959
24 | O=C(O)[C@@H]1CCCN(CCOCCc2ccccc2Cc2ccccc2)C1 [An_2001/6_40, O(CCc1ccccc1Cc1ccccc1)CCN1C[C@@H](CCC1)C(O)=O] | 7
25 | O=C(O)[C@@H]1CCCN(CCOC/C(=C/c2ccccc2)c2ccccc2)C1 [An_2001/6_41, O(CCN1C[C@@H](CCC1)C(O)=O)C\C(=C\c1ccccc1)\c1ccccc1] | 6.297
26 | O=C(O)[C@@H]1CCCN(CCOC/C(=C\c2ccccc2)c2ccccc2)C1 [An_2001/6_42, O(CCN1C[C@@H](CCC1)C(O)=O)C\C(=C/c1ccccc1)\c1ccccc1] | 5.523
27 | O=C(O)[C@@H]1CCCN(CCOCCc2ccccc2)C1 [An_2001/6_43, O(CCc1ccccc1)CCN1C[C@@H](CCC1)C(O)=O] | 5.347
28 | CC(C)CN(CCOCCN1CCC[C@@H](C(=O)O)C1)c1ccccc1 [An_2001/6_44, O(CCN1C[C@@H](CCC1)C(O)=O)CCN(CC(C)C)c1ccccc1] | 6.553
29 | CC(C)CN(CCOCCN1CCC[C@@H](C(=O)O)C1)c1ccc(F)cc1Cl [An_2001/6_45, Clc1cc(F)ccc1N(CC(C)C)CCOCCN1C[C@@H](CCC1)C(O)=O] | 6.827

Same assay, conditions: literature data set; ref 10.1021/jm00064a005; cited from earlier work

Row | Compound | pIC50
30 | O=C(O)C1=CCCN(CCOC(c2ccc(C(F)(F)F)cc2)c2ccc(C(F)(F)F)cc2)C1 [Cl-966, FC(F)(F)c1ccc(cc1)C(OCCN1CC(=CCC1)C(O)=O)c1ccc(cc1)C(F)(F)F] | 6.357
31 | O=C(O)C1=CCCN(CCC=C(c2ccccc2)c2ccccc2)C1 [SK&F-100330-A, OC(=O)C=1CN(CCC=1)CC\C=C(\c1ccccc1)/c1ccccc1] | 6.699
32 | Cc1ccsc1C(=CCCN1CCC[C@@H](C(=O)O)C1)c1sccc1C [compound 5, tiagabine] | 7.174

Same assay, conditions: literature data set; ref 10.1021/jm981027k; cited from earlier work

Row | Compound | pIC50
33 | O=C(O)C1=CCCN(CCON=C(c2ccccc2)c2ccccc2)C1 [NO-711, O(\N=C(\c1ccccc1)/c1ccccc1)CCN1CC(=CCC1)C(O)=O] | 7.328

Same assay, conditions: literature data set; ref 10.1021/jm990513k; cited from earlier work

Row | Compound | pIC50
34 | O=C(O)[C@@H]1CCCN(CCOCCN2c3ccccc3Sc3ccccc32)C1 [An_2001/5_21, S1c2c(N(c3c1cccc3)CCOCCN1C[C@@H](CCC1)C(O)=O)cccc2] | 6.509
35 | O=C(O)[C@H]1CCCN(CCOCCN2c3ccccc3Sc3ccc(C(F)(F)F)cc32)C1 [An_2001/5_22, S1c2c(N(c3c1cccc3)CCOCCN1C[C@H](CCC1)C(O)=O)cc(cc2)C(F)(F)F] | 6.979
36 | O=C(O)[C@@H]1CCCN(CCOCCN2c3ccccc3CCc3ccccc32)C1 [An_2001/5_23, O(CCN1C[C@@H](CCC1)C(O)=O)CCN1c2c(CCc3c1cccc3)cccc2] | 6.745
37 | O=C(O)C1=CCCN(CCOCCN2c3ccccc3CCc3ccccc32)C1 [An_2001/5_24, O(CCN1CC(=CCC1)C(O)=O)CCN1c2c(CCc3c1cccc3)cccc2] | 6.194
38 | O=C(O)[C@@H]1CCCN(CCOCCN2c3ccccc3C=Cc3ccccc32)C1 [An_2001/5_26, O(CCN1C[C@@H](CCC1)C(O)=O)CCN1c2c(C=Cc3c1cccc3)cccc2] | 6.187
39 | O=C(O)[C@@H]1CCCN(CCOCCN2c3ccccc3CCc3ccc(Cl)cc32)C1 [An_2001/5_27, Clc1cc2N(c3c(CCc2cc1)cccc3)CCOCCN1C[C@@H](CCC1)C(O)=O] | 7.155
40 | O=C(O)[C@@H]1CCCN(CCOCCN2c3cc(Cl)ccc3CCc3ccc(Cl)cc32)C1 [An_2001/5_28, Clc1cc2N(c3cc(Cl)ccc3CCc2cc1)CCOCCN1C[C@@H](CCC1)C(O)=O] | 7.155
41 | O=C(O)[C@@H]1CCCN(CCOCCN2c3ccccc3CCc3ccc(F)cc32)C1 [An_2001/5_29, Fc1cc2N(c3c(CCc2cc1)cccc3)CCOCCN1C[C@@H](CCC1)C(O)=O] | 6.577
42 | O=C(O)[C@@H]1CCCN(CCOCCN2c3ccc(F)cc3CCc3cc(F)ccc32)C1 [An_2001/5_30, Fc1cc2CCc3cc(F)ccc3N(c2cc1)CCOCCN1C[C@@H](CCC1)C(O)=O] | 6.602
43 | O=C(O)[C@@H]1CCCN(CCOCCN2c3ccc(Br)cc3CCc3cc(Br)ccc32)C1 [An_2001/5_31, Brc1cc2CCc3cc(Br)ccc3N(c2cc1)CCOCCN1C[C@@H](CCC1)C(O)=O] | 5.987
44 | O=C(O)[C@@H]1CCCN(CCOCCCN2c3ccccc3CCc3ccccc32)C1 [An_2001/5_32, O(CCCN1c2c(CCc3c1cccc3)cccc2)CCN1C[C@@H](CCC1)C(O)=O] | 6.155
45 | O=C(O)[C@@H]1CCCN(CCOCCN2c3ccccc3CCCc3ccccc32)C1 [An_2001/5_33, O(CCN1C[C@@H](CCC1)C(O)=O)CCN1c2c(CCCc3c1cccc3)cccc2] | 6.071
46 | O=C(O)[C@@H]1CCCN(CCOCC=C2c3ccccc3CCc3ccccc32)C1 [An_2001/5_34, O(CCN1C[C@@H](CCC1)C(O)=O)C\C=C/1\c2c(CCc3c\1cccc3)cccc2] | 6.114
47 | O=C(O)[C@@H]1CCCN(CCOC/C=C2\c3ccccc3CCc3ccc(Cl)cc32)C1 [An_2001/5_35, Clc1cc\2c(CCc3c(cccc3)/C/2=C\COCCN2C[C@@H](CCC2)C(O)=O)cc1] | 5.603
48 | O=C(O)[C@@H]1CCCN(CCCOCC=C2c3ccccc3CCc3ccccc32)C1 [An_2001/5_36, O(CCCN1C[C@@H](CCC1)C(O)=O)C\C=C/1\c2c(CCc3c\1cccc3)cccc2] | 6.337
49 | O=C(O)[C@@H]1CCCN(CCOCCC2c3ccccc3CCc3ccccc32)C1 [An_2001/5_37, O(CCC1c2c(CCc3c1cccc3)cccc2)CCN1C[C@@H](CCC1)C(O)=O] | 6.252
50 | O=C(O)C1=CCCN(CCOCCC2c3ccccc3CCc3ccccc32)C1 [An_2001/5_38, O(CCC1c2c(CCc3c1cccc3)cccc2)CCN1CC(=CCC1)C(O)=O] | 5.921
